Structures can show the parent of a compound that is named as a salt.

For the test, the system named is IFN-γ and TNF-α. The test can be described thus: Immunofluorescence of IFN-γ and TNF-α in CD8+ T-cells. As to conditions: IF % change. The class given is in vivo, mouse. On the procedure:
FIG. 5 is a graphical representation showing that dual epigenetic-immunotherapy re-educates and re-programs the T-cell repertoire. A. Cells stimulated with PMA/ionomycin for 4 hours in the presence of Brefeldin A. Cells were surfaced stained with CD45, CD3, CD4, CD8, CD44, CD62L (for naïve, effector and central memory), CD25 and FoxP3 (for Tregs) and analyzed via Flow cytometry. A Mann-Whitney non-parametric t-test was used to compare control vs other groups (*p<0.05, n=2-5). […] Representative images for each dataset are shown. TNFI values for EOMES, TBET and Ki67 measured using Image) to select the nucleus minus background. […] Cells stimulated with PMA/ionomycin for 4 hours in the presence of Brefeldin A. Cell were surfaced stained with CD45, CD3, CD4, CD8 and intracellular staining of IFN-γ, IL-2 and TNF-α in the presence of Brefeldin A and analyzed via flow cytometry. […] TNFI values for TNFα and IFNγ measured using ImageJ to select the nucleus minus background. […]
A total of 2×10^5 cells were injected per mouse into mammary gland in 50 μL of phosphate buffered saline (PBS). […] Tumors were measured using calipers and the tumor volumes (mm3) were calculated using the formula (length×width2)/2. ? arvested cells from primary tumors where then cytospun ? -treated with poly-1-lysine and fixed then stored in PBS for IFA Microscopy Analysis. […]

With `NNCCc1ccccc1` (racemic) [phenelzine sulfate, (±)-2-phenylethylhydrazine], the IFN-γ expression result is listed as “no significant effect”.

These data come from patent US20210186905A1, “ENHANCING T-CELL FUNCTION AND TREATING A T-CELL DYSFUNCTIONAL DISORDER WITH A COMBINATION OF AN LSD INHIBITOR AND A PD-1 BINDING ANTAGONIST” (EpiAxis Therapeutic Pty Ltd, priority 2017, published 2021).
